Measured values as given in the supplement of paper PMC10307832.

Assays:
Assay in all cases: relative viability (nuclei count vs DMSO), 5 days (fraction); higher = more cells survive
Quizartinib + AZD7762 = compound: CC(C)(C)c1cc(NC(=O)Nc2ccc(-c3cn4c(n3)sc3cc(OCCN5CCOCC5)ccc34)cc2)no1 [Quizartinib] + NC(=O)Nc1cc(-c2cccc(F)c2)sc1C(=O)N[C@H]1CCCNC1 [AZD7762] (partner 0.2 µM)
In short: (§1)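 Relative viability is defined as nuclei in treated wells over nuclei in vehicle wells. Duplicate plates were run and medians reported. Lung cancer cell lines in 1536-well plates were dosed by pin tool one day after seeding, with one drug or with a fixed anchor-drug dose plus five library-drug doses (not always all listed) in √10 steps, and nuclei were counted after 5 days.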

YM155 + Crizotinib = compound: COCC[n+]1c2c(n(Cc3cnccn3)c1C)C(=O)c1ccccc1C2=O [YM155] + C[C@@H](Oc1cc(-c2cnn(C3CCNCC3)c2)cnc1N)c1c(Cl)ccc(F)c1Cl [Crizotinib] (partner 1 µM)
In short: as §1

YM155 + Decitabine = compound: COCC[n+]1c2c(n(Cc3cnccn3)c1C)C(=O)c1ccccc1C2=O [YM155] + Nc1ncn([C@H]2C[C@H](O)[C@@H](CO)O2)c(=O)n1 [Decitabine] (partner 2 µM)
In short: as §1

[1] = compound: CC(C)(C)c1cc(NC(=O)Nc2ccc(-c3cn4c(n3)sc3cc(OCCN5CCOCC5)ccc34)cc2)no1 [Quizartinib] + CC(=O)c1c(C)c2cnc(Nc3ccc(N4CCNCC4)cn3)nc2n(C2CCCC2)c1=O [Palbociclib] (partner 0.5 µM)
In short: as §1

Row | Cell Line | relative viability (Quizartinib + AZD7762; first compound 0.001 µM) | relative viability (Quizartinib + AZD7762; first compound 0.003162 µM) | relative viability (Quizartinib + AZD7762; first compound 0.01 µM) | relative viability (Quizartinib + AZD7762; first compound 0.03162 µM) | relative viability (Quizartinib + AZD7762; first compound 0.1 µM) | relative viability (YM155 + Crizotinib; first compound 0.002 µM) | relative viability (YM155 + Crizotinib; first compound 0.006325 µM) | relative viability (YM155 + Crizotinib; first compound 0.02 µM) | relative viability (YM155 + Crizotinib; first compound 0.06325 µM) | relative viability (YM155 + Decitabine; first compound 0.002 µM) | relative viability (YM155 + Decitabine; first compound 0.006325 µM) | relative viability (YM155 + Decitabine; first compound 0.02 µM) | relative viability (YM155 + Decitabine; first compound 0.06325 µM) | relative viability ([1]; first compound 0.001 µM) | relative viability ([1]; first compound 0.003162 µM) | relative viability ([1]; first compound 0.01 µM) | relative viability ([1]; first compound 0.03162 µM) | relative viability ([1]; first compound 0.1 µM)
1 | A-427 | 0.467 | 0.676 | 0.722 | 0.639 | 0.718 | 0.959 | 0.839 | 0.89 | 0.865 | 0.525 | 0.567 | 0.571 | 0.466 | 0.425 | 0.48 | 0.523 | 0.485 | 0.505
2 | LOU-NH91 | 0.749 | 0.768 | 0.739 | 0.722 | 0.827 | 0.735 | 0.688 | 0.731 | 0.727 | 0.766 | 0.812 | 0.852 | 0.831 | 0.59 | 0.506 | 0.547 | 0.577 | 0.567
3 | LCLC-103H | 0.664 | 0.701 | 0.746 | 0.866 | 0.829 | 0.971 | 1.03 | 1.03 | 1 | 0.747 | 0.735 | 0.731 | 0.716 | 0.38 | 0.506 | 0.482 | 0.513 | 0.558
4 | NCI-H1651 | 0.473 | 0.346 | 0.508 | 0.416 | 0.466 | 0.956 | 0.806 | 0.876 | 0.894 | 0.667 | 0.613 | 0.627 | 0.586 | 0.456 | 0.479 | 0.54 | 0.517 | 0.566
5 | NCI-H2347 | 0.728 | 0.696 | 0.799 | 0.768 | 0.749 | 0.683 | 0.644 | 0.561 | 0.633 | 0.64 | 0.612 | 0.648 | 0.539 | 0.405 | 0.43 | 0.379 | 0.428 | 0.434
6 | LC-2-ad | 0.75 | 0.835 | 0.91 | 0.883 | 0.835 | 0.446 | 0.428 | 0.496 | 0.453 | 0.773 | 0.788 | 0.742 | 0.706 | 0.4 | 0.518 | 0.528 | 0.508 | 0.461
7 | NCI-H3122 | 0.964 | 1.02 | 0.971 | 1.02 | 0.962 | 0.269 | 0.239 | 0.257 | 0.272 | 0.428 | 0.432 | 0.482 | 0.486 | 0.176 | 0.184 | 0.193 | 0.162 | 0.235
8 | HCC-78 | 0.671 | 0.805 | 0.539 | 0.535 | 0.777 | 0.328 | 0.322 | 0.325 | 0.371 | 0.647 | 0.751 | 0.739 | 0.741 | – | 0.476 | 0.494 | 0.404 | 0.453
9 | LK-2 | 0.456 | 0.405 | 0.474 | 0.244 | 0.293 | 0.226 | 0.236 | 0.214 | 0.241 | 0.29 | 0.14 | 0.341 | 0.362 | 0.734 | 0.621 | 0.853 | 0.599 | 0.69
